Measured values as given in the NIST ThermoML archive (doi:10.1007/s10765-015-2009-x).

Experiment: mn = molality of the nth substance listed, in mol/kg
Details: 101 kPa, Liquid, Pycnometric method

Cl.N[C@@H](CCC(=O)O)C(=O)O [L-glutamic acid hydrochloride] + O
mass density [kg/m3]
Details	m1 = 0.01009	m1 = 0.02021	m1 = 0.02997	m1 = 0.03992	m1 = 0.05011	m1 = 0.06005
298.15 K	1000	1000.9	1001.6	1002.3	1002.9	1003.6
303.15 K	998.9	999.9	1000.6	1001.2	1001.8	1002.4
308.15 K	997.6	998.7	999.4	1000	1000.6	1001.1
313.15 K	996.1	997.3	998	998.6	999.2	999.8
